We go through five compounds from patent publication EP4671240A1, “SALT CONTAINING AROMATIC RING DERIVATIVE ANTAGONIST, PREPARATION METHOD THEREFOR, AND APPLICATION THEREOF” (Jiangsu Hansoh Pharmaceutical Group Co., Ltd., priority 2023, dated 2024).

Where a name gives a salt, the structure may show the parent alone.

Data set [1] in a line: Liver microsomal metabolism stability assay (rat). In kind it is in vitro ADME. To be noted: rat liver microsomes, 60 min, compound 1 µM. Here is the method:
(§1) The objective of this experiment was to detect the stability of the example compounds in liver microsomes of rats, dogs and humans.
(§2) Formulation of compound working solution: compound stock solution was added to phosphate buffer to a final concentration of 20 µM.
(§3) Dilution was performed with 100 mM phosphate buffer to a final concentration of 0.625 mg/mL.
(§4) NADPH (reduced nicotinamide adenine dinucleotide phosphate) and UDPGA (uridine diphosphate glucuronic acid) were weighed, and 100 mM phosphate buffer was added to a final concentration of 20 mM.
(§5) 1 mg of Alamethicin was weighed, and 200 µL of DMSO was added to formulate a 5 mg/mL solution. Then dilution was performed with phosphate buffer to a final concentration of 50 µg/mL.
(§6) Stop solution: cold acetonitrile containing 100 ng/mL labetalol hydrochloride and 400 ng/mL tolbutamide as internal standards.
(§7) 400 µL of formulated liver microsomes, 25 µL of compound working solution and 25 µL of Alamethicin were added in sequence to a 96-well plate, and the mixture was pre-incubated at 37°C for 10 min. Then 50 µL of formulated NADPH/UDPGA was added to start the reaction and the mixture was incubated at 37°C. The total volume of the reaction system was 500 µL. The final contents of each component are as follows:
(§8) • Instrument: Shimadzu LC-30 AD; • Chromatographic column: XBridge® C18 (50*4.6 mm, 5 µm particle size); • Mobile phase: A: 0.1% formic acid solution, B: methanol • Elution gradient: 0.2-1.6 min 5% A to 95% A, 3.0-3.1 min 95% A to 5% A • Run time: 4.0 min.
(§9) • Instrument: API5500 liquid chromatography-mass spectrometer, AB Sciex; • Ion source: electrospray ionization source (ESI); • Drying gas: N2, temperature 500°C; • Electrospray voltage: 5000 V; • Detection mode: positive ion detection; • Scan mode: Multiple Reaction Monitoring (MRM) mode.
For orientation: Microsomes from liver hold many membrane-bound enzymes, among them those of drug oxidation.

A short description of data set [2]: Liver microsomal metabolism stability assay (dog). In kind it is in vitro ADME. The following applies: dog liver microsomes, 60 min, compound 1 µM. Here is the method:
as §1, §2, §3, §4, §5, §6, §7, §8, §9

A short description of data set [3]: Liver microsomal metabolism stability assay (human). The following applies: human liver microsomes, 60 min, compound 1 µM. In kind it is in vitro ADME. Here is the method:
as §1, §2, §3, §4, §5, §6, §7, §8, §9

The nature of data set [4]: Solid stability experiment of crystal forms of salts. In kind it is physicochemical. To be noted: for XRPD: after treatment under light, high humidity, high temperature and 50°C/RH75%. From the text:
To investigate the physical and chemical stability of crystal forms of the compound under high temperature, high humidity, high temperature and high humidity, and light conditions, thereby providing a basis for crystal form screening and storage.
4.1.3.1 Appropriate amounts of crystal form B of the hydrochloride salt, crystal form A of the methanesulfonic acid salt, crystal form A of the sulphuric acid salt, and crystal form A of the hydrobromic acid salt of the compound 4'-((2-butyl-4-oxo-1,3-diazaspiro[4.4]non-1-en-3-yl)methyl-d2)-N-(4-chloro-5-methylisoxazol-3-yl)-2'-(ethoxymethyl)-[1,1'-biphenyl]-2-sulfonamide were weighed and treated under light (5000±500lux), high humidity (25°C, 92.5%), high temperature (60°C), and 50°C±2°C/RH75%±5% for a certain period of time, and then their XRPD, purity and impurity content data were measured.
The maximum individual impurity increase for crystal form B of hydrochloride salt, crystal form A of methanesulfonic acid salt and crystal form A of sulphuric acid salt was determined by comparing Day 20 with Day 0, whereas for crystal form A of hydrobromic acid salt, it was determined by comparing Day 10 with Day 0.

Data set [5] is described as follows: Hygroscopicity experiment (dynamic vapor sorption). In kind it is physicochemical. From the text: To investigate the hygroscopicity of crystal form B of the hydrochloride salt of the compound 4'-((2-butyl-4-oxo-1,3-diazaspiro[4.4]non-1-en-3-yl)methyl-d2)-N-(4-chloro-5-methylisoxazol-3-yl)-2'-(ethoxymethyl)-[1,1'-biphenyl]-2-sulfonamide under different relative humidity conditions, thereby providing a basis for compound crystal form screening and storage.
Crystal form B of the hydrochloride salt of the compound 4'-((2-butyl-4-oxo-1,3-diazaspiro[4.4]non-1-en-3-yl)methyl-d2)-N-(4-chloro-5-methylisoxazol-3-yl)-2'-(ethoxymethyl)-[1,1'-biphenyl]-2-sulfonamide was placed in saturated water vapor with different relative humidity to allow the compound and the water vapor to reach dynamic equilibrium, and the percentage of hygroscopic weight gain of the compound after equilibrium was calculated.

[6] abbreviates: 50°C&75%RH, Day 20 compared with Day 0.
Setting [7] is: high humidity 25°C, 92.5% RH, Day 20 compared with Day 0.
[8] abbreviates: high temperature 60°C, Day 20 compared with Day 0.
Where [9] appears, read: light 5000±500lux, Day 20 compared with Day 0.

Turning to `[2H]C([2H])(OCC)c1cc(CN2C(=O)C3(CCCC3)N=C2CCCC)ccc1-c1ccccc1S(=O)(=O)Nc1noc(C)c1Cl` [Example 4, 4'-((2-Butyl-4-oxo-1,3-diazospiro[4.4]non-1-en-3-yl)methyl)-N-(4-chloro-5-methylisoxazol-3-yl)-2'-(ethoxydeuteromethyl)-[1,1'-biphenyl]-2-sulfonamide], in data set [1], the “Rat Remaining rate” value is reported as 17.1%. Moreover, in data set [2], the “Dog Remaining rate” value was found to be 23.9%. Besides, in data set [3], the “Human Remaining rate” value is given as 30.7%.
In the case of `[2H]C([2H])(c1ccc(-c2ccccc2S(=O)(=O)Nc2noc(C)c2Cl)c(COCC)c1)N1C(=O)C2(CCCC2)N=C1CCCC` [Crystal form A of hydrobromic acid salt, 4'-((2-butyl-4-oxo-1,3-diazaspiro[4.4]non-1-en-3-yl)methyl-d2)-N-(4-chloro-5-methylisoxazol-3-yl)-2'-(ethoxymethyl)-[1,1'-biphenyl]-2-sulfonamide], the “Maximum individual impurity increase” value in data set [4] (50°C&75%RH, Day 10 compared with Day 0) worked out at 0.02%; in data set [4] (high humidity 25°C, 92.5% RH, Day 10 compared with Day 0) it was 0.02%; in data set [4] (high temperature 60°C, Day 10 compared with Day 0), 0.05%. The XRPD result in data set [4] is “Crystal form unchanged”.
With `[2H]C([2H])(c1ccc(-c2ccccc2S(=O)(=O)Nc2noc(C)c2Cl)c(COCC)c1)N1C(=O)C2(CCCC2)N=C1CCCC` [Crystal form A of methanesulfonic acid salt] [4'-((2-butyl-4-oxo-1,3-diazaspiro[4.4]non-1-en-3-yl)methyl-d2)-N-(4-chloro-5-methylisoxazol-3-yl)-2'-(ethoxymethyl)-[1,1'-biphenyl]-2-sulfonamide], the “Maximum individual impurity increase” value in data set [4] (setting [6]) was 0.08%; in data set [4] (setting [7]), less than 0.01%; in data set [4] (setting [8]), 0.05%; in data set [4] (setting [9]) it was 0.09%. The XRPD result in data set [4] is on record as “Crystal form unchanged”.
For `[2H]C([2H])(c1ccc(-c2ccccc2S(=O)(=O)Nc2noc(C)c2Cl)c(COCC)c1)N1C(=O)C2(CCCC2)N=C1CCCC` [Crystal form A of sulphuric acid salt, 4'-((2-butyl-4-oxo-1,3-diazaspiro[4.4]non-1-en-3-yl)methyl-d2)-N-(4-chloro-5-methylisoxazol-3-yl)-2'-(ethoxymethyl)-[1,1'-biphenyl]-2-sulfonamide] the same measures were 0.14%, 0.05%, 0.11%, 0.06% and “Crystal form unchanged”.
On to `[2H]C([2H])(c1ccc(-c2ccccc2S(=O)(=O)Nc2noc(C)c2Cl)c(COCC)c1)N1C(=O)C2(CCCC2)N=C1CCCC` [Crystal form B of hydrochloride salt, 4'-((2-butyl-4-oxo-1,3-diazaspiro[4.4]non-1-en-3-yl)methyl-d2)-N-(4-chloro-5-methylisoxazol-3-yl)-2'-(ethoxymethyl)-[1,1'-biphenyl]-2-sulfonamide], for which the “Maximum individual impurity increase” value in data set [4] (setting [6]) was less than 0.01%; in data set [4] (setting [7]), less than 0.01%; in data set [4] (setting [8]), 0.02%; in data set [4] (setting [9]), 0.04%. The XRPD entry in data set [4] is “Crystal form unchanged”. The hygroscopic weight gain in data set [5] (RH80%, 25°C, DVS) is on record as 0.378%. Further, the “XRPD pattern after moisture absorption and desorption” value in data set [5] (after 2 cycles under 0-95% relative humidity) is “no change”.
